Read-outs that look alike come from different tables or passages of the source.
Key:
[1] = Stability in the stomach: hydrolysis rate at pH 2.0; assay type: physicochemical; conditions: 1% solution, 10 mmol/L hydrochloric acid, pH 2.0, 37° C.
Description: The stability of a substance in the gastric passage can be simulated by determining the hydrolysis rate at pH 2.0. Sucrose and 1-kestose are used as controls.
In each case a 1% solution of the trisaccharides (DP 3) from Example 4 is incubated with 10 mmol/L hydrochloric acid, pH 2.0 at 37° C. for 3 h. Samples are taken from the reaction mixture after 60, 120 and 180 min and are analyzed by basic anion exchange chromatography, HPAEC.

[2] = tested on: pancreatin enzyme (Sigma); experiment: Stability with respect to pancreatic enzymes; assay type: in vitro ADME; conditions: 1% solution, 0.2% pancreatin, pH 7.0, 210 min at 37° C.
Description: The pancreatic secretion contains a large number of hydrolases, including carbohydrate-degrading enzymes like α-amylase, which breaks down α-1,4-glucans (starch, glycogen) preferably to maltose and maltooligosaccharides. The test of the stability of saccharides with respect to pancreatic enzymes is carried out as follows.
3.0 mL of a carbohydrate solution (solution 2 to solution 6) is mixed with 0.1 mL of the enzyme solution (solution 7) per batch:
Solution 1: 20 mmol/L Na phosphate buffer, pH 7.0, with 6 mmol/L NaCl
Solution 2: 1% solution of β-1,4-galactosyl isomalt mixture in accordance with the invention, prepared according to Example 2 and Example 4, in solution 1
Solution 3: 1% solution of β-1,3-galactosyl isomalt mixture in accordance with the invention, prepared according to Example 1 and Example 4, in solution 1
Solution 4: 1% solution of β-1,6-galactosyl isomalt mixture in accordance with the invention; prepared according to Example 3 and Example 4, in solution 1
Solution 6: 1% starch solution (soluble starch, according to Zulkowski), in solution 1
Solution 7: 0.2% pancreatin enzyme (Sigma), dissolved in solution 1
After 210 min incubation in a thermomixer (interval shaking) at 37° C., the reaction is stopped by heating to 95° C. for 15 min and the samples are analyzed by HPAEC. The starch-containing sample (solution6+solution 7) is completely hydrolyzed before the HPAEC analysis by heating for 3 h in 1 mol/L hydrochloric acid at 95° C., and the glucose resulting from this is determined in order to calculate the starch content of the sample.

[3] = tested on: lactase; experiment: Stability with respect to lactase; assay type: in vitro ADME; conditions: 0.9 unit lactase, 1% solution, 37° C., 6 h
From the text: The enzyme lactase that is present at the mucosa in the small intestine serves in vivo to break down lactose that gets into the small intestine and the resulting monosaccharides are absorbed into the bloodstream through the intestinal wall.
The enzyme lactase is isolated in a modified method of Wallenfels, K., and Fischer, J. (Z. Physiologische Chemie 321 (1960) 223).
Solutions 1-5: see Example 8c)
Solution 6: 1% solution of lactose in solution 1
Solution 7: 1% solution of isomalt in solution 1
Solution 8: Lactase in solution 1
(solutions 2-7), mixed and incubated at 37° C. The reaction is stopped after 6 h by heating to 95° C. for 15 min.

[4] = tested on: human feces; experiment: In vitro fermentation in human feces; assay type: cell-based; conditions: for Degradation rate: 0.5% (w/v) substrate, feces suspension, anaerobic, 37° C.; for Butyrate content (end sample): end of fermentation with human feces
Description: Incubation of carbohydrates with human feces allows statements to be made about the rate of metabolization by the bacterial population and formation of the short-chain fatty acid butyric acid.
To invest the fermentability in an in vitro fermentation experiment, Raftilose® P95 (fructooligosaccharides, DP4-5), galactosyl lactose (Oligomate DP 3) and lactosucrose were used for comparison as carbohydrates of similar structure and degree of polymerization, in addition to β-galactosyl isomalts.
An anaerobic medium of the following composition was used for the in vitro experiments:
9 mL of the anaerobic medium 1 described above are mixed with 0.5% (w/v) of the galactosyl isomalts to be tested (prepared according to Examples 1-3) and the corresponding controls lactosucrose and galactosyl lactose and then inoculated with 1 mL of a 10% feces suspension (mixed feces from two subjects) in anaerobic 50 mmol/L phosphate buffer, pH 7.0, to which 0.5 g/L cysteine/HCl was added beforehand as reducing agent.
The batches are then incubated in “Hungate” test tubes for a maximum of 28 h while shaking at 37° C. Samples are taken at various times and tested for content of residual oligosaccharides, short-chain fatty acids, lactic acid and pH.

[5] = tested on: glucoamylase/maltase (GM complex); experiment: Stability with respect to small intestine α-glucosidases: glucoamylase/maltase; conditions: 120 min incubation
Description: (§1) Solution 1: 0.1 mol/L triethanolamine (TEA) buffer, pH 7.0
(§2) Solution 11: Glucoamylase/maltase enzyme complex in solution 1
(§3) i) 0.7 unit of the enzyme complex saccharase/isomaltase (solution 10) or glucoamylase/maltase (solution 11) was added in each case to 1.0 mL of a carbohydrate solution heated to 37° C. (solution 2 to solution 8), mixed and incubated at 37° C.
(§4) ii) For incubation under more severe conditions, 16 units of the enzyme complex saccharase/isomaltase or 13 units of the enzyme complex glucoamylase/maltase were used. The reaction was stopped after 2 h by heating to 95° C. for 15 min. The resulting monosaccharides and the undegraded saccharides of the relevant batches were quantitatively determined by HPAEC.

[6] = target: saccharase/isomaltase (SI complex) (Sus scrofa, UniProt P56729); experiment: Stability with respect to small intestine α-glucosidases: saccharase/isomaltase; conditions: 120 min incubation
From the text: Solution 6: 1% solution of maltose in solution 1
Solution 7: 1% solution of sucrose in solution 1
Solution 8: 1% solution of isomalt in solution 1
Solution 9: 1% solution of isomaltulose in solution 1
Solution 10: Saccharase/isomaltase enzyme complex in solution 1

[7] = tested on: glucoamylase/maltase (GM complex)
Description: as §1, §2, §3, §4

[8] = Standard (0.7 unit), 37° C., pH 7.0

Chain of saccharase/isomaltase (SI complex) (P56729 with tags, fused parts or gaps limits assumed): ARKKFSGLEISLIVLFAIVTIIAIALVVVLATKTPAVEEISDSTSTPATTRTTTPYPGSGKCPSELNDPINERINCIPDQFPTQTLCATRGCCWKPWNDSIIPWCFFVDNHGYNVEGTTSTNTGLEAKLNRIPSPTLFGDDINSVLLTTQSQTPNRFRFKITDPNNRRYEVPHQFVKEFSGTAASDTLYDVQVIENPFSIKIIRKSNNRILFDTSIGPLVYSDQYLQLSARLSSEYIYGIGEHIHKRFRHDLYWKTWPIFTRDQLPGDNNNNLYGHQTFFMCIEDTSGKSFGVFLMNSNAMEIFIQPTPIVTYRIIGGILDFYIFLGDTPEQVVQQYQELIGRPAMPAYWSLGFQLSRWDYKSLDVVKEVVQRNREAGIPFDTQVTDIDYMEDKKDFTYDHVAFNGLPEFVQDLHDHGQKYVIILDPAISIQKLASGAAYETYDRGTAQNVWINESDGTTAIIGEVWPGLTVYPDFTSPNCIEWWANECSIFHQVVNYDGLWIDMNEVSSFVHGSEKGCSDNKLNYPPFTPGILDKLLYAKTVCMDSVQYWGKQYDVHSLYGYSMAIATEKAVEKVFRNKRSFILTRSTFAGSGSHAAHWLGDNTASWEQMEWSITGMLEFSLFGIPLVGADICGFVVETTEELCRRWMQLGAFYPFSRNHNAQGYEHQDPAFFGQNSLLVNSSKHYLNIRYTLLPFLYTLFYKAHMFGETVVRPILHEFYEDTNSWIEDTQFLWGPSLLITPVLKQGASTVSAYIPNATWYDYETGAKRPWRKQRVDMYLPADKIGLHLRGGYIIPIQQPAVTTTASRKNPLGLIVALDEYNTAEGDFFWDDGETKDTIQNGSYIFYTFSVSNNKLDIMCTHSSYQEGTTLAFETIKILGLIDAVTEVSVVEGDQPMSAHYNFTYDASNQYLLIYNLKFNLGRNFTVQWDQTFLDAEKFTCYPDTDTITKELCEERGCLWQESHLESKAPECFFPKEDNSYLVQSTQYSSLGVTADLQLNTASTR
Chain of saccharase/isomaltase (SI complex) (P56729 with tags, fused parts or gaps limits assumed): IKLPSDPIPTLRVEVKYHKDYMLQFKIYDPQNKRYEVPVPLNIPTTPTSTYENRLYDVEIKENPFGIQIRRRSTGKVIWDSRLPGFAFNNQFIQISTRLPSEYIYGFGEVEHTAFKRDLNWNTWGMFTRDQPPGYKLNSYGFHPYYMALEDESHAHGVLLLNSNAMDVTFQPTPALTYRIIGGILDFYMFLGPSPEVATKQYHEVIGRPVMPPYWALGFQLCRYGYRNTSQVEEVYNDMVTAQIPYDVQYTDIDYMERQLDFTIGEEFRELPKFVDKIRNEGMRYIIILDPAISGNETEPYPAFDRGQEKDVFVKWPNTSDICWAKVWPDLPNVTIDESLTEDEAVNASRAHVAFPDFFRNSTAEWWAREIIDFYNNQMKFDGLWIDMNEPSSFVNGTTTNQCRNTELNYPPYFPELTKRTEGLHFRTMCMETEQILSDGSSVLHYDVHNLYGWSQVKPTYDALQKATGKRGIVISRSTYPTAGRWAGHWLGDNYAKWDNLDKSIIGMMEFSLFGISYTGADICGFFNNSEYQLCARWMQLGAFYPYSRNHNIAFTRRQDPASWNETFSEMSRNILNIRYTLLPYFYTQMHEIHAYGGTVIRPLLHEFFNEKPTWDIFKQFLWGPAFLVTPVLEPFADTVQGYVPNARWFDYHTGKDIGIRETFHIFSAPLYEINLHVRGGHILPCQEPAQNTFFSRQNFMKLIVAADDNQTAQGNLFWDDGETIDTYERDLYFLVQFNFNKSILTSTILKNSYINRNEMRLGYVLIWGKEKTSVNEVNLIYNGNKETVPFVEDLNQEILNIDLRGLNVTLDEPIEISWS

Compound | Hydrolysis rate [%] ([1]; incubation time 0 min) | Hydrolysis rate [%] ([1]; incubation time 60 min) | Hydrolysis rate [%] ([1]; incubation time 120 min) | Hydrolysis rate [%] ([1]; incubation time 180 min) | Hydrolysis rate [%], incubation with lactase [3] | Degradation rate ([4]; incubation time 7 (h)) | Degradation rate ([4]; incubation time 22 (h)) | Hydrolysis rate [%] [5, 8] | Butyrate content (end sample) [4] | also measured
OCC1O[C@@H](O[C@@H]2C(CO)O[C@H](OC[C@@H](O)[C@@H](O)[C@H](O)C(O)CO)C(O)C2O)C(O)C(O)[C@H]1O (mixture of isomers) [β-1,4-Galactosyl isomalt, β-D-galactosyl-(1→4)-α-D-glucosyl-(1→6)-D-sorbitol (β-1,4-galactosyl-1,6-GPS) and β-D-galactosyl-(1→4)-α-D-glucosyl-(1→1)-D-mannitol(β-1,4-galactosyl-1,1-GPM)] | 0% | 0% | 0% | <1% | 13.4% | 61% | 97.7% | 0% | – | Decomposition rate [%] [2]: <1%; Degradation rate ([4]; incubation time 28 (h)): 96%; Hydrolysis rate [%] ([5]; More stringent (13 units)): 0%
OCC1O[C@@H](OCC2O[C@H](OC[C@@H](O)[C@@H](O)[C@H](O)C(O)CO)C(O)C(O)[C@@H]2O)C(O)C(O)[C@H]1O (mixture of isomers) [β-1,6-Galactosyl isomalt, β-D-galactosyl-(1→6)-α-D-glucosyl-(1→6)-D-sorbitol(β-1,6-galactosyl-1,6-GPS) and β-D-galactosyl-(1→6)-α-D-glucosyl-(1→1)-D-mannitol(β-1,6-galactosyl-1,1-GPM)] | 0% | 0% | 0% | <1% | 9.3% | 64.2% | 96.1% | 0% | 15.3 mmol/L | Decomposition rate [%] [2]: <1%; Degradation rate ([4]; incubation time 28 (h)): 99.2%; Hydrolysis rate [%] ([5]; More stringent (13 units)): 0%
OC[C@H]1O[C@@](CO)(OC[C@@]2(O[C@H]3O[C@H](CO)[C@@H](O)[C@H](O)[C@H]3O)O[C@H](CO)[C@@H](O)[C@@H]2O)[C@@H](O)[C@@H]1O [1-Kestose, reference compound] | 0% | 11% | 25% | 36% | – | – | – | – | – | –
OC[C@H]1O[C@H](OC[C@H]2O[C@](O)(CO)[C@@H](O)[C@@H]2O)[C@H](O)[C@@H](O)[C@@H]1O [Isomaltulose, 6-O-α-D-glucopyranosyl-(1→6)-β-D-fructofuranose] | – | – | – | – | – | – | – | – | – | Hydrolysis rate [%] ([6]; More stringent (16 units)): 79.0%; Hydrolysis rate [%] [6, 8]: 18.0%; Hydrolysis rate [%] [7]: 39.9%; Hydrolysis rate [%] ([7]; pH 7): 3.1%
OC[C@H]1O[C@@H](O[C@H]2[C@H](O)[C@@H](O)C(O)O[C@@H]2CO)[C@H](O)[C@@H](O)[C@H]1O (some centres unmarked) [Lactose, reference compound] | – | – | – | – | 95.6% | – | – | – | – | Hydrolysis rate [%], incubation with lactase ([3]; listed as lactose): Nearly complete hydrolysis
OC[C@H]1O[C@@H](O[C@H]2[C@H](O)[C@@H](O)[C@@H](O[C@]3(CO)O[C@H](CO)[C@@H](O)[C@@H]3O)O[C@@H]2CO)[C@H](O)[C@@H](O)[C@H]1O [Lactosucrose, reference compound] | – | – | – | – | – | 98.9% | – | – | 6.5 mmol/L | content of butyrate formed at the end of the fermentations [4]: about 6 mmol/L; Degradation rate ([4]; incubation time 7 (h), listed as lactosucrose): nearly completely metabolized; Degradation rate ([4]; incubation time 14 (h)): 100%
OC[C@H]1O[C@H](O[C@H]2[C@H](O)[C@@H](O)[C@H](O)O[C@@H]2CO)[C@H](O)[C@@H](O)[C@@H]1O [Maltose] | – | – | – | – | – | – | – | Nearly complete hydrolysis | – | –
OC[C@H]1O[C@@](CO)(O[C@H]2O[C@H](CO)[C@@H](O)[C@H](O)[C@H]2O)[C@@H](O)[C@@H]1O [Sucrose, reference compound] | 0% | 2% | 5% | 8% | – | – | – | – | – | Hydrolysis rate [%] ([6]; Standard (0.7 unit), 37° C., pH 7.0, listed as saccharose): Nearly complete hydrolysis
Isomalt | – | – | – | – | – | – | – | – | – | Hydrolysis rate [%] ([6]; More stringent (16 units)): 52.4%; Hydrolysis rate [%] ([6]; More stringent (16 units), listed as isomalt): 52%; Hydrolysis rate [%] [6, 8]: 3.5%; Hydrolysis rate [%] ([6]; Standard (0.7 unit), 37° C., pH 7.0, listed as isomalt): partially broken down; Hydrolysis rate [%] [7]: 12.8%; Hydrolysis rate [%] ([7]; pH 7): 0%
galactosyl lactose [Galactosyl-Lactose (Oligomate DP 3), reference compound] | – | – | – | – | – | 96.6% | 100% | – | 6.3 mmol/L | content of butyrate formed at the end of the fermentations [4]: about 6 mmol/L; Degradation rate ([4]; incubation time 7 (h), listed as galactosyl lactose): nearly completely metabolized; Degradation rate ([4]; incubation time 14 (h)): 99.5%

From US20060008574A1, “Galactosyl isomalt, method for production and use thereof” (priority 2002, published 2006)
